Among the data in patent US8580842B2, “Heteroaryl-substituted 1,3-dihydroindol-2-one derivatives and medicaments containing them” (Abbott GmbH & Co. KG, priority 2003, dated 2013) are Ki values, retold here.

Where a name gives a salt, the structure may show the parent alone.

The target of this experiment is T1, human V1b receptors (Homo sapiens, UniProt P47901).
T1 construct: expressed in transfected cells; host or cells: CHO-K1 (membrane preparation V1b-3H2)
T1 sequence (P47901 1-424): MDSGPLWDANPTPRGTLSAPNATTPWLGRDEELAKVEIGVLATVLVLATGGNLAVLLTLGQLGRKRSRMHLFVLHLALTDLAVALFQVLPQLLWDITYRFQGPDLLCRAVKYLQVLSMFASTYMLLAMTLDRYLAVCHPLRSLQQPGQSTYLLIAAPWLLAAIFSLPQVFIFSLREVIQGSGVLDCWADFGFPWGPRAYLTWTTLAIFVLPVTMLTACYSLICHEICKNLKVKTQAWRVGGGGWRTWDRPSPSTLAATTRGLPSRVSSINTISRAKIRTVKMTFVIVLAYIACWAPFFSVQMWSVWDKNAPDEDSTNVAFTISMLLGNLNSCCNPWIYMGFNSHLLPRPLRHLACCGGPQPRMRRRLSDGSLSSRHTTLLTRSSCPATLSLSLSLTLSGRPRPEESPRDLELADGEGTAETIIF
Put plainly: Vasopressin V1b receptor binding assay. Conditions: membranes from CHO-K1 cells expressing human V1b receptors, displacement of 1.5 nM 3H-AVP; read-out: Binding affinity for the vasopressin V1b receptor. The protocol: Vasopressin V1b Receptor Binding Assay
The binding of the compounds of this invention to the vasopressin V1b receptor was determined with the following assay:
Compounds were dissolved in a concentration of 10^−2 M or 10^−3 M in DMSO. Further dilutions were performed with water.
The procedure for the binding assay was based on the method of Tahara et al. (Tahara A et al., Brit. J. Pharmacol. 125, 1463-1470 (1998)). Assays (0.250 ml) consisted of membranes (58 μg protein) from CHO-K1 cells permanently expressing human V1b receptors (preparation V1b-3H2, containing protease inhibitors, Roche complete Mini #1836170), 1.5 nM ^3H-AVP (8-Arg-vasopressin, NET 800) in incubation buffer (total binding) and different concentrations of test compound (displacement). Non-specific binding was defined with 10^−6 M AVP. Assays were performed in triplicate.
Incubation buffer: 50 mM Tris, 10 mM MgCl2, 0.1% BSA adjusted to pH 7.4 with HCl.
After incubation, 60 min at room temperature, bound and free radioligand was separated by filtration under vacuum through Whatman GF/B glass fibre mats using a Skatron cell harvester 7000.
Liquid scintillation counting was performed in beta-counters, Tricarb model 2000 or 2200CA (Packard). Dpm were calculated by a programme with standardisation using a standard quench series.
Evaluation of binding parameters was performed by non-linear regression analysis with SAS. The strategy of this program is similar to the program LIGAND described by Munson and Rodbard (Munson PJ and Rodbard D, Analytical Biochem 107, 220-239 (1980)).
`COc1ccccc1C1(N2C[C@H](O)C[C@H]2C(=O)N(C)C)C(=O)N(S(=O)(=O)c2cc(C)ccn2)c2ccc(Cl)cc21` (single isomer, unassigned) [Example 252]: the Ki is less than 50 nM. In the case of `COc1ccccc1C1(N2C[C@H](O)C[C@H]2C(=O)N(C)C)C(=O)N(S(=O)(=O)c2cccc(C)n2)c2ccc(Cl)cc21` (single isomer, unassigned) [Example 253], the Ki was less than 50 nM.

`COc1ccc(S(=O)(=O)N2C(=O)C(c3cccnc3OC)(N3CC[C@H]3C(=O)N(C)C)c3cc(Cl)ccc32)c(OC)c1` (single isomer, unassigned) [Example 255]: the Ki lay in the range of 50 to 500 nM. As to `COc1ccccc1C1(N2C[C@H](O)C[C@H]2C(=O)N(C)C)C(=O)N(S(=O)(=O)c2sccc2OC)c2ccc(Cl)cc21` (single isomer, unassigned) [Example 256], the Ki was less than 50 nM. In the case of `COc1ncccc1C1(N2C[C@H](O)C[C@H]2C(=O)N(C)C)C(=O)N(S(=O)(=O)c2cccs2)c2ccc(Cl)cc21` (single isomer, unassigned) [Example 270], the Ki is less than 50 nM. For `COc1ncccc1C1(N2C[C@H](O)C[C@H]2C(=O)N(C)C)C(=O)N(S(=O)(=O)c2cccs2)c2ccc(C#N)cc21` (single isomer, unassigned) [Example 277] the value was 50 to 500 nM; for `COc1ccc(C2(N3C[C@H](O)C[C@H]3C(=O)N(C)C)C(=O)N(S(=O)(=O)c3cccs3)c3ccc(Cl)cc32)c(OC)n1` (single isomer, unassigned) [Example 280], less than 50 nM. For `COc1ncc(C2(N3C[C@H](O)C[C@H]3C(=O)N(C)C)C(=O)N(S(=O)(=O)c3cccs3)c3ccc(Cl)cc32)c(OC)n1` (single isomer, unassigned) [Example 281], the Ki fell in the range of 50 to 500 nM.

For `COc1ncc(C2(N3C[C@H](O)C[C@H]3C(=O)N(C)C)C(=O)N(S(=O)(=O)c3ccc(C)cn3)c3ccc(Cl)cc32)c(OC)n1` (single isomer, unassigned) [Example 282], the Ki is less than 50 nM. For the molecule `COc1ccsc1S(=O)(=O)N1C(=O)C(c2cccnc2OC)(N2C[C@H](O)C[C@H]2C(=O)N(C)C)c2cc(OC(F)(F)F)ccc21` (single isomer, unassigned) [Example 286], the Ki fell in the range of 50 to 500 nM. With `COc1ncccc1C1(N2C[C@H](O)C[C@H]2C(=O)N(C)C)C(=O)N(S(=O)(=O)c2cccc3cccnc23)c2ccc(Cl)cc21` (single isomer, unassigned) [Example 288], the Ki was less than 50 nM. For the molecule `COc1ccccc1C1(N2C[C@H](O)C[C@H]2C(=O)N(C)C)C(=O)N(S(=O)(=O)c2cc(Br)c(Cl)s2)c2ccc(Cl)cc21` (stereo partly drawn) [Example 33, (2S,4R)-1-[1-(4-Bromo-5-chloro-thiophene-2-sulfonyl)-5-chloro-3-(2-methoxy-phenyl)-2-oxo-2,3-dihydro-1H-indol-3-yl]-4-hydroxy-pyrrolidine-2-carboxylic acid dimethylamide trifluoroacetate], the Ki lay in the range of 50 to 500 nM. `COc1ccccc1C1(N2C[C@H](O)C[C@H]2C(=O)N(C)C)C(=O)N(S(=O)(=O)c2cnc(Cl)c(Br)c2)c2ccc(Cl)cc21` (stereo partly drawn) [Example 59, (2S,4R)-1-[5-Chloro-1-(5-bromo-6-chloropyridine-3-sulfonyl)-3-(2-methoxy-phenyl)-2-oxo-2,3-dihydro-1H-indol-3-yl]-4-hydroxy-pyrrolidine-2-carboxylic acid dimethylamide]: the Ki is greater than 500 nM. For the molecule `COc1ccc(S(=O)(=O)N2C(=O)C(OC(=O)Nc3ccc(Cl)cc3)(c3sccc3C)c3cc(Cl)ccc32)c(OC)c1` (stereo not shown) [Example 63, (4-Chloro-phenyl)-carbamic acid 5-chloro-1-(2,4-dimethoxy-benzenesulfonyl)-3-(3-methyl-thiophen-2-yl)-2-oxo-2,3-dihydro-1H-indol-3-ylester], the Ki is greater than 500 nM. With `COc1ccccc1C1(OC(=O)N2CCCCC2)C(=O)N(S(=O)(=O)c2cccc3cccnc23)c2ccc(Cl)cc21` (stereo not shown) [Example 65, Piperidine-1-carboxylic acid 5-chloro-3-(2-methoxy-phenyl)-2-oxo-1-(quinoline-8-sulfonyl)-2,3-dihydro-1H-indol-3-yl ester] the figure was 50 to 500 nM. Turning to `COc1ccccc1C1(OC(=O)N2CCN(C3CCN(C)CC3)CC2)C(=O)N(S(=O)(=O)c2cccc3cccnc23)c2ccc(Cl)cc21` (stereo not shown) [Example 75, 4-(1-Methyl-piperidin-4-yl)-piperazine-1-carboxylic acid 5-chloro-3-(2-methoxy-phenyl)-2-oxo-1-(quinoline-8-sulfonyl)-2,3-dihydro-1H-indol-3-yl ester bismethanesulfonate], the Ki was less than 50 nM. As to `COc1ncccc1C1(OC(=O)N2CCN(C3CCN(C)CC3)CC2)C(=O)N(S(=O)(=O)c2ccccc2)c2ccc(Cl)cc21` (stereo not shown) [Example 76, 4-(1-Methyl-piperidin-4-yl)-piperazine-1-carboxylic acid 1-benzenesulfonyl-5-chloro-3-(2-methoxy-pyridin-3-yl)-2-oxo-2,3-dihydro-1H-indol-3-yl ester], the Ki was less than 50 nM.

Regarding `COc1ccc(S(=O)(=O)N2C(=O)C(NC(=O)C3CCN(c4ccncc4)CC3)(c3cccnc3OC)c3cc(Cl)ccc32)c(OC)c1` (stereo not shown) [Example 82, 3,4,5,6-Tetrahydro-2H-[1,4′]bipyridinyl-4-carboxylic acid [5-chloro-1-(2,4-dimethoxy-benzenesulfonyl)-3-(2-methoxy-pyridin-3-yl)-2-oxo-2,3-dihydro-1H-indol-3-yl]-amide], the Ki is less than 50 nM. With `CCOc1ccccc1C1(NC(=O)N2CCN(C3CCN(C)CC3)CC2)C(=O)N(S(=O)(=O)c2cccc3cccnc23)c2ccc(OC)cc21` (stereo not shown) [Example 83, 4-(1-Methyl-piperidin-4-yl)-piperazine-1-carboxylic acid [3-(2-ethoxy-phenyl)-5-methoxy-2-oxo-1-(quinoline-8-sulfonyl)-2,3-dihydro-1H-indol-3-yl]-amide] the figure was less than 50 nM. For `COc1ncccc1C1(OC(=O)N2CCC(N3CCN(C)CC3)CC2)C(=O)N(S(=O)(=O)c2ccccc2)c2ccc(Cl)cc21` (stereo not shown) [Example 103, 4-(4-Methyl-piperazin-1-yl)-piperidine-1-carboxylic acid 1-benzenesulfonyl-5-chloro-3-(2-methoxy-pyridin-3-yl)-2-oxo-2,3-dihydro-1H-indol-3-yl ester], the Ki is less than 50 nM. In the case of `COc1ccc(S(=O)(=O)N2C(=O)C(OC(=O)N3CCN(C4CCN(C)CC4)CC3)(c3ccccn3)c3cc(Cl)ccc32)c(OC)c1` (stereo not shown) [Example 104, 4-(1-Methyl-piperidin-4-yl)-piperazine-1-carboxylic acid 5-chloro-1-(2,4-dimethoxy-benzenesulfonyl)-2-oxo-3-pyridin-2-yl-2,3-dihydro-1H-indol-3-yl ester trishydrochloride], the Ki is less than 50 nM.

For `COc1ccc(S(=O)(=O)N2C(=O)C(OC(=O)N3CCN(C4CCN(C)CC4)CC3)(c3cccnc3OC)c3cc(Cl)ccc32)c(OC)c1` (stereo not shown) [Example 105, 4-(1-Methyl-piperidin-4-yl)-piperazine-1-carboxylic acid 5-chloro-1-(2,4-dimethoxy-benzenesulfonyl)-3-(2-methoxy-pyridin-3-yl)-2-oxo-2,3-dihydro-1H-indol-3-yl ester], the Ki was less than 50 nM. For `COc1ccc(S(=O)(=O)N2C(=O)C(OC(=O)N3CCC(N4CCN(C)CC4)CC3)(c3cccnc3OC)c3cc(C)ccc32)c(OC)c1` (stereo not shown) [Example 107, 4-(4-Methyl-piperazin-1-yl)-piperidine-1-carboxylic acid 1-(2,4-dimethoxy-benzenesulfonyl)-3-(2-methoxy-pyridin-3-yl)-5-methyl-2-oxo-2,3-dihydro-1H-indol-3-yl ester] the value was less than 50 nM; for `COc1ncccc1C1(OC(=O)N2CCN(C3CCN(C)CC3)CC2)C(=O)N(S(=O)(=O)c2ccc(C#N)cc2)c2ccc(Cl)cc21` (stereo not shown) [Example 113, 4-(1-Methyl-piperidin-4-yl)-piperazine-1-carboxylic acid 5-chloro-1-(4-cyano-benzenesulfonyl)-3-(2-methoxy-pyridin-3-yl)-2-oxo-2,3-dihydro-1H-indol-3-yl ester diacetate], less than 50 nM; for `COc1ccc(S(=O)(=O)N2C(=O)C(OC(=O)N3CCN(C4CCN(C)CC4)CC3)(c3cccnc3OC)c3cc(Cl)ccc32)cc1` (stereo not shown) [Example 115, 4-(1-Methyl-piperidin-4-yl)-piperazine-1-carboxylic acid 5-chloro-1-(4-methoxy-benzenesulfonyl)-3-(2-methoxy-pyridin-3-yl)-2-oxo-2,3-dihydro-1H-indol-3-yl ester diacetate], less than 50 nM.
